Data reported in US4554355A, “Heterocyclic compounds as antiallergic agents” (American Home Products Corporation, priority 1984, dated 1985).
Like-named read-outs stand apart in the source and are kept apart here.

Tests used:
[1] = tested on: LTD4 induced bronchospasm; assay: in vivo inhibition of bronchospasm induced in guinea pigs by exogenously administered leukotriene LTD4; design: species or system guinea pig (male Hartley strain); settings: guinea pig, 50 mg/kg intraduodenal, 10 minutes before induction
Procedure: The assay of this Example measures the in vivo ability of the compounds of the invention to inhibit the bronchospasm induced in guinea pigs by the exogenously administered leukotrienes C4 and/or D4. This assay is essentially a measure of the SRS-A antagonist properties of the compounds tested.
This assay is carried out as follows:
Male Hartley strain guinea pigs (350-600 g) are anesthetized with pentobarbital sodium (50 mg/kg, i.p.). The jugular vein is cannulated for injection of drugs and the carotid artery for monitoring blood pressure. The trachea is cannulated for artificial ventilation by a miniature Starling pump and for indirect measurement of respiratory volume changes as described infra. Additional pentobarbital sodium (15 mg/kg, i.v.) is administered to arrest spontaneous respiration. Submaximal bronchoconstrictor responses are established in control animals by varying the dose-levels of leukotriene. Intravenous dose-levels for LTC4 range from 1 to 2 μg/kg and for LTD4 the range is from 0.3 to 1 μg/kg. The aerosol bronchoprovocation dose for LTC4 is generated from 1.6 μM solution and for LTD4 from a 2.0 μM solution.
Test drugs are administered either intravenously, intraduodenally, by aerosol or orally at 1 or 10 minutes before induction of bronchospasm by administration of either LTC4 or LTD4 at the predetermined dose-levels. Aerosols of soluble drugs or leukotrienes are produced in-line for 10 seconds only by actuation of an ultrasonic nebulizer (Monaghan). Aerosolized drug dosage is expressed in terms of solution concentration and by a fixed aerosol exposure time (approximately 10 seconds). Control animals receive saline in place of drug.
Respiratory volume changes are determined by a calibrated piston whose travel is recorded, via a linear transducer, on a Beckman Dynograph recorder. Maximal bronchoconstrictor volume is determined by clamping off the trachea at the end of the experiment. Overflow volumes at 1, 3 and 5 minutes are obtained from the recorded charts.
The overflow volume at 1, 3 and 5 minutes is expressed as a percentage of maximal bronchoconstriction. Combined group values are used from each of these time intervals to determine the inhibitory effect of drugs. [formula] Students t-test for unpaired data is used to determine statistical significance. Dose response curves are generated and ED50 doses are interpolated from the regression lines.
Results for a compound of the invention in this assay, using LTD4 for induction of bronchospasm, is given below: […]

[2] = tested on: synthesis of 5-HETE and LTB4 by rat glycogen-elicited polymorphonuclear leukocytes; assay: inhibition of the synthesis of 5-HETE and LTB4 by rat glycogen-elicited polymorphonuclear leukocytes; type: cell-based, rat (female Wistar); settings: rat PMN, A23187 10 μM; for IC50: Leukocyte, 10 min preincubation
Procedure: This is especially true with respect to 5,12-diHETE, which is also denoted as LTB4 [see Ford-Hitchinson, J. Roy. Soc. Med., 74, 831 (1981)]. The assay of this Example measures the ability of the compounds of the invention to inhibit the synthesis of 5-HETE and LTB4 by rat glycogen-elicited polymorphonuclear leukocytes.
The assay is carried out as follows:
Peritoneal PMN are obtained from female Wistar rats (150-250 g) that received an i.p. injection of 6% glycogen (10 ml). After 24 hours, rats are killed by CO2 asphyxiation and peritoneal cells are harvested by peritoneal lavage using Ca^++ and Mg^++ free Hanks' balanced salt solution (HBSS). The peritoneal exudate is centrifuged at 400 g for 10 minutes. After centrifugation, the lavaged fluid is removed and the cell pellet is resuspended in HBSS containing Ca^++ and Mg^++ and 10 mM L-cysteine at a concentration of 2×10^7 cells/ml. To 1 ml portions of cell suspension, test drugs or vehicle are added and incubated at 37° C. for 10 minutes. Following this preincubation, the calcium ionophore (10 μM), A23187, is added together with 0.5 μCi[^14 C]arachidonic acid and further incubated for 10 minutes. The reaction is stopped by the addition of ice cold water (3 ml) and acidifying to pH 3.5. Lipoxygenase products are then extracted twice into diethyl ether. The pooled ether extracts are evaporated to dryness under nitrogen and the residue is redissolved in a small volume of methanol and spotted on aluminum backed pre-coated thin layer chromatographic plates. The samples are then co-chromatographed with authentic reference 5-HETE, 12-HETE and 5,12-diHETE in the solvent system--hexane:ether:acetic acid (50:50:3). After chromatography, the areas associated with 5-HETE and 5,12-diHETE standards are identified by autoradiography, cut out and quantitated by liquid scintillation.
Results are expressed as % inhibition of [^14 C]5-HETE and [^14 C]LTB4 (5,12-HETE) synthesis. [formula]
Testing compounds of the invention in this assay and using the antioxidant 3-amino-1-[m-(trifluoromethyl)phenyl]-2-pyrazoline (BW755C) as a standard, the following results are obtained.

| Compound | % Inhibition Overflow Volume at 1 min. [1] [%] | % Inhibition Overflow Volume at 3 min. [1] [%] | % Inhibition Overflow Volume at 5 min. [1] [%] | % Inhibition at 100 μm, 5-HETE ([2]; [14C]5-HETE synthesis) [%] | % Inhibition at 100 μm, LTB4 ([2]; [14C]LTB4 synthesis) [%] | IC50 ([2]; [14C]5-HETE synthesis, read-out: 50% Inhibitory Concentration (IC50), 5-HETE) [µM] | IC50 ([2]; [14C]LTB4 synthesis, read-out: 50% Inhibitory Concentration (IC50), LTB4) [µM] |
| --- | --- | --- | --- | --- | --- | --- | --- |
| COC(=O)C1CC(=O)N(c2cccc(OCc3nc4ccccc4o3)c2)C1 (centres unmarked) [Example 2B, N-[3-[(2-benzoxazolyl)methoxy]phenyl]pyrrolidin-2-on-4-carboxylic acid, methyl ester] | 26 | 12 | 15 | 87.20 | 82.80 |  |  |
| COC(=O)C1CC(=O)N(c2cccc(OCc3nc4ccccc4n3C)c2)C1 (centres unmarked) [Example 2A, N-[3-[(1-methyl-2-benzimidazolyl)methoxy]phenyl]pyrrolidin-2-on-4-carboxylic acid, methyl ester] | 56 | 20 | 18 | 34.60 | 32.30 |  |  |
| NC1=NN(c2cccc(C(F)(F)F)c2)CC1 [BW755C, 3-amino-1-[m-(trifluoromethyl)phenyl]-2-pyrazoline, reference compound] |  |  |  |  |  | 43 | 30 |
| COC(=O)C1CC(=O)N(c2cccc(OCc3nc4ccccc4s3)c2)C1 (centres unmarked) [Example 1, N-[3-[(2-Benzthiazolyl)methoxy]phenyl]pyrrolidin-2-on-4-carboxylic acid, methyl ester] | 72 | 66 | 68 | 94.30 | 84.50 |  |  |
